Experimental data taken from patent US20230064490A1, “FLUORESCENT PROTEIN BIOSENSOR FOR DETECTION OF KINASE ACTIVITY” (Lucidicor Inc., priority 2018, published 2023).

Tested on: PKA
Experiment: PKA-PhosFluor fluorescence in transfected HEK-293 cells treated with drug
Assay type: cell-based, human
Details: HEK-293 cells transfected with PKA-PhosFluor; excitation 488 nm, emission 530 nm; 6 hr after addition of drug
Procedure: PKA-PhosFluor and cat_PKA are transcribed from different plasmids maintained by separate antibiotic resistance genes. FIG. 2C and FIG. 2D show charcoal agar plates streaked with E. coli containing the two plasmids indicated in B. The control plate lacks IPTG (FIG. 2C) while the IPTG plate was treated with 1 mM IPTG for 24 hours (FIG. 2D). […] Graphs depict % fluorescence change (excitation 488 nm; emission 530 nm) measured using a microplate reader 6 hr after addition of the indicated drug. Error bars indicate ±SEM (n=6). FIG. 2F is a schematic diagram showing mechanism of action for each drug.
Next, the ability of PKA-PhosFluor to monitor PKA activity in mammalian cells was examined. PKA activity is regulated by the level of cAMP, which itself, is regulated by other signaling pathways and cell growth (Uhler et al., 1986). […] All the drugs used have widely varying mechanisms of action (FIG. 2F).

SMILES	fluorescence of PKA-PhosFluor (% fluorescence change)
Nc1ncnc2c1nc(Br)n2[C@@H]1O[C@@H]2COP(=O)(O)O[C@H]2[C@H]1O [br-cAMP]	induced fluorescence
CCCCCCOC(=O)[C@]1(O)C[C@@H]2O[C@@]1(C)n1c3ccccc3c3c4c(c5c6ccccc6n2c5c31)C(=O)NC4 [KT-5720]	reduced fluorescence
O=S(=O)(NCCNC/C=C/c1ccc(Br)cc1)c1cccc2cnccc12 [H89]	reduced fluorescence
Nc1ncnc2c1ncn2[C@@H]1O[C@@H]2COP(O)(=S)O[C@H]2[C@H]1O (some centres unmarked) [Rp-cAMP]	reduced fluorescence
CC(C)Cn1c(=O)n(C)c(=O)c2[nH]cnc21 [IBMX]	induced fluorescence
